Results on 33 molecules are retold here after ChEMBL document CHEMBL1128355, “Benzophenone derivatives: a novel series of potent and selective inhibitors of human immunodeficiency virus type 1 reverse transcriptase” (J Med Chem, 1995).

Series [1] is described as follows: Half life period in mouse S9 liver preparation. The format is ADME. As to conditions: liver S9 fraction.
A short description of series [2]: Half life period in mouse serum. It counts as ADME, organism-based.
Series [3] concerns C8166. Put plainly: Inhibitory activity against P24 antigen formation in infected C8166 cells. It counts as functional, cell-based. As to conditions: Homo sapiens.
The test system of series [4] is Human immunodeficiency virus 1. Description: Antiviral activity against HIV-1 (strain RF) infected MT-4 cells. The note with it: Human immunodeficiency virus 1, MT4. It counts as functional, organism-based.
Series [5] can be described thus: Toxicity against uninfected MT-4 cells. It counts as cell-based, MT4. The note with it: human.
For series [6], the target named is Human immunodeficiency virus type 1 reverse transcriptase (Human immunodeficiency virus 1, UniProt Q72547). Description: Inhibitory activity against HIV-1 reverse transcriptase.
The test system of series [7] is C8166. Put plainly: Inhibitory activity against syncytia formation in infected C8166 cells. The format is functional, cell-based. The note with it: Homo sapiens.
Series [8] concerns MT4. Put plainly: Antiviral activity against HIV-1 resistant to 2-(2-Benzoyl-4-chloro-phenyl)-N-[4-(3-dimethylamino-propoxy)-2-methyl-phenyl]-acetamide in MT-4 cells. It counts as functional, cell-based. As to conditions: Homo sapiens.
In series [9] the test system is MT4. Description: Cytotoxicity against uninfected MT-4 cells. It counts as functional, cell-based, Homo sapiens.
Setting [10] is: Homo sapiens, MT4, read-out: IC50.

Each structure is given as a SMILES string. Converted amounts (≈) assume the structure as drawn. Bounds are passed on as bounds.

Regarding `O=C(c1ccccc1)c1cc(Cl)ccc1OCC(=O)N1CCc2ccccc2C1`, the half-life (as a rule, the time needed for the level to fall by half in the phase considered) in series [1] was 2.8 h; in [2], 1.2 h. Besides, the IC50 – broadly, the concentration that inhibits the measured activity by half – with C8166 [3] was 0.016 mg/L (≈ 0.0394 µM); in series [4], 0.014 mg/L (≈ 0.0345 µM); in [5], above 0.5 mg/L; in series [6], 0.0148 µM; in the series on C8166 [7], 0.011 mg/L (≈ 0.0271 µM).

Regarding `O=C(COc1ccc(-n2ccnc2)cc1C(=O)c1ccccc1)Nc1ccccc1`, the half-maximal inhibitory concentration (IC50) in series [4] is above 10 mg/L; in [5], 10 mg/L (≈ 25.2 µM); in series [6], above 25.2 µM.

As for `CCN(CC)CCOc1ccc(NC(=O)COc2ccccc2C(=O)c2ccc(F)cc2)cc1`, the IC50 in the series on C8166 [3] was below 0.05 mg/L; in [4] it was 0.75 mg/L (≈ 1.61 µM); in series [5] it was above 0.5 mg/L; in series [6] it was 21.5 µM; in the series on C8166 [7], 0.016 mg/L (≈ 0.0344 µM).

Consider `O=C(COc1ccc(Cl)cc1C(O)c1ccccc1)Nc1ccccc1` (configuration not stated), for which the IC50 in series [6] is above 272 µM.

With `O=C(COc1ccc(Cl)cc1C(=O)c1ccccc1)Nc1ccccc1`, the half-life in series [1] and in series [2] was below 0.25 h in each case. In addition, the IC50 in the series with C8166 [3] is 0.0012 mg/L (≈ 0.00328 µM); in series [4], 0.0004 mg/L (≈ 0.00109 µM); in [5] it was above 0.005 mg/L; in [6], 0.0273 µM; with C8166 [7], 0.0002 mg/L (≈ 0.000547 µM).

`O=C(COc1ccc(Cl)cc1C(=O)c1cccnc1)Nc1ccccc1`: the results for the IC50 in [4], in [5] and in series [6] were below 0.01 mg/L, 10 mg/L (≈ 27.3 µM) and 0.436 µM, respectively.

For the molecule `O=C(COc1ccc(Cl)cc1C(=O)c1ccccc1)NC1CCCCC1`, the IC50 in [6] is 39 µM.

On to `c1nc2cnncc2[nH]1`, for which the values for the IC50 (in the series on MT4 [8]; in series [4]; with MT4 [9] (setting [10])) were 0.5 mg/L (≈ 4.16 µM), 0.004 mg/L (≈ 0.0333 µM) and above 1 mg/L, respectively.

With `CCN(CC)CCOc1ccc(NC(=O)COc2ccccc2C(=O)c2ccc(OC)cc2)cc1`, the half-maximal inhibitory concentration (IC50) was 0.18 mg/L (≈ 0.378 µM) with C8166 [3]; 0.44 mg/L (≈ 0.923 µM) in series [4]; 5 mg/L (≈ 10.5 µM) in [5]; 14.3 µM in series [6]; 0.34 mg/L (≈ 0.713 µM) in the series on C8166 [7].

For `O=C(COc1ccc(Cl)cc1C(=O)c1ccccc1)c1cc2ccccc2[nH]1`, the half-life is 3.5 h in [1] and below 0.25 h in series [2]. Besides, the IC50 in the series with C8166 [3] is above 5 mg/L; in series [4] it was 0.7 mg/L (≈ 1.8 µM); in [5] it was 10 mg/L (≈ 25.7 µM); in [6], 0.162 µM; with C8166 [7] it was above 50 mg/L.

As for `O=C(COc1ccc(Cl)cc1C(=O)C1CCCC1)Nc1ccccc1`, the IC50 in [4] is 0.22 mg/L (≈ 0.615 µM); in [5] it was above 100 mg/L; in [6], 5.03 µM.

`Cc1cc(OCCCN(C)C)ccc1NC(=O)Cc1ccc(Cl)cc1C(=O)c1ccccc1`: the half-life is 1.8 h in [1] and 4.75 h in series [2]. Further, the IC50 is 0.0029 mg/L (≈ 0.00624 µM) with C8166 [3]; 0.0044 mg/L (≈ 0.00946 µM) in series [4]; above 0.5 mg/L in series [5]; 0.753 µM in series [6]; 0.016 mg/L (≈ 0.0344 µM) in the series with C8166 [7].

For the molecule `CCN(CC)CCOc1ccc(NC(=O)COc2ccccc2C(=O)c2ccccc2)cc1`, the IC50 in the series with C8166 [3] was 0.0015 mg/L (≈ 0.00336 µM); in series [4], below 0.001 mg/L; in series [5], above 0.5 mg/L; in series [6], 5.15 µM; in the series with C8166 [7] it was 0.005 mg/L (≈ 0.0112 µM).

`CN(C)CCCOc1ccc(NC(=O)Cc2ccc(Cl)cc2C(=O)c2ccccc2)cc1`: the figures for the IC50 in series [4], in [5] and in series [6] were 0.21 mg/L (≈ 0.466 µM), 10 mg/L (≈ 22.2 µM) and 0.443 µM, respectively.

In the case of `O=C(c1ccccc1)c1cc(Cl)ccc1OCc1nc2ccccc2[nH]1`, the half-life in [1] and in series [2] was above 6 h each time. Besides, the 50% inhibitory concentration (IC50) was 0.032 mg/L (≈ 0.0882 µM) in the series with C8166 [3]; 0.31 mg/L (≈ 0.854 µM) in [4]; above 0.5 mg/L in [5]; 1.41 µM in series [6]; 0.052 mg/L (≈ 0.143 µM) in the series with C8166 [7].

For `O=C(COc1ccc(Cl)cc1C(=O)c1ccccc1)Cc1ccccc1`, the results for the concentration for half-maximal inhibition (IC50) in series [4], in [5] and in [6] were above 100 mg/L, above 100 mg/L and 32.9 µM, respectively.

`Cc1cc(OCCCN(C)C)cc(C)c1NC(=O)Cc1ccc(Cl)cc1C(=O)c1ccccc1` had an IC50 in [6] above 104 µM.

For `O=C(COc1ccc(Cl)c(Cl)c1C(=O)c1ccccc1)Nc1ccccc1`, the IC50 in [6] was above 250 µM.

Turning to `CCN(CC)CCOc1ccc(NC(=O)COc2ccc(Cl)cc2C(=O)c2ccccc2)cc1`, the IC50 in [4] is above 10 mg/L; in series [5] it was 10 mg/L (≈ 20.8 µM); in series [6] it was 0.936 µM.

As to `O=C(COc1c(Cl)cc(Cl)cc1C(=O)c1ccccc1)Nc1ccccc1`, the IC50 in series [6] is above 250 µM.

With `Cc1cc(OCCCN(C)C)ccc1NC(=O)c1ccc(Cl)cc1C(=O)c1ccccc1`, the IC50 in [6] was above 222 µM.

Regarding `CN(C)CCCOc1ccc(NC(=O)COc2ccc(Cl)cc2C(=O)c2ccccc2)cc1`, the half-life is above 2 h in series [1] and below 0.25 h in series [2]. Also, the IC50 with C8166 [3] was below 0.0005 mg/L; in series [4], below 0.01 mg/L; in series [5], above 0.5 mg/L; in [6], 0.208 µM; in the series on C8166 [7], 0.0009 mg/L (≈ 0.00193 µM).

On to `Cc1ccccc1CNC(=O)COc1ccc(Cl)cc1C(=O)c1ccccc1`, for which the half-life in series [1] is above 6 h; in series [2], 2.8 h. Moreover, the IC50 is 0.032 mg/L (≈ 0.0812 µM) in the series on C8166 [3]; 0.028 mg/L (≈ 0.0711 µM) in [4]; 10 mg/L (≈ 25.4 µM) in series [5]; 6.35 µM in series [6]; 0.05 mg/L (≈ 0.127 µM) with C8166 [7].

Consider `O=C(COc1ccc(F)cc1C(=O)c1ccccc1)Nc1ccccc1`, for which the IC50 is 0.006 mg/L (≈ 0.0172 µM) with C8166 [3]; 0.09 mg/L (≈ 0.258 µM) in series [4]; 10 mg/L (≈ 28.6 µM) in [5]; 0.00859 µM in series [6]; 0.014 mg/L (≈ 0.0401 µM) in the series with C8166 [7].

On to `O=C(c1ccccc1)c1cc(Cl)ccc1OCCNc1ccccc1`, for which, in series [6], the IC50 is above 284 µM.

As for `O=C(COc1cc(Cl)c(Cl)cc1C(=O)c1ccccc1)Nc1ccccc1`, the figures for the IC50 in [4], in [5] and in series [6] were 0.023 mg/L (≈ 0.0575 µM), 100 mg/L (≈ 250 µM) and 0.035 µM, respectively.

In the case of `CCc1cc(OCCCN(C)C)ccc1NC(=O)Cc1ccc(Cl)cc1C(=O)c1ccccc1`, the IC50 is 0.21 mg/L (≈ 0.438 µM) in series [4], 10 mg/L (≈ 20.9 µM) in [5] and 5.22 µM in [6].

Take `O=C(c1ccccc1)c1cc(Cl)ccc1OC/C=C/c1ccccc1`: in series [6], the half-inhibitory concentration (IC50) is above 287 µM.

As to `CCN(CC)CCOc1ccc(NC(=O)COc2cc(OC)ccc2C(=O)c2ccccc2)cc1`, the IC50 with C8166 [3] is 0.013 mg/L (≈ 0.0273 µM); in series [4], below 0.01 mg/L; in series [5] it was 5 mg/L (≈ 10.5 µM); in [6] it was 13.2 µM; in the series with C8166 [7], 0.05 mg/L (≈ 0.105 µM).

As to `CCc1cc(NCc2nc3c(Cl)ccc(Cl)c3o2)c(O)nc1C` [L-697661], the 50% inhibitory concentration (IC50) is 0.0023 mg/L (≈ 0.00653 µM) in the series on MT4 [8], 0.0017 mg/L (≈ 0.00483 µM) in [4], 100 mg/L (≈ 284 µM) in the series on MT4 [9] (setting [10]) and 100 mg/L (≈ 284 µM) in the series with MT4 [9] (mt4).

For the molecule `Nc1ccn([C@@H]2CS[C@H](CO)O2)c(=O)n1` [LAMIVUDINE], the 50% inhibitory concentration (IC50) is 0.048 mg/L (≈ 0.209 µM) in the series with MT4 [8], 0.043 mg/L (≈ 0.188 µM) in [4] and above 100 mg/L in the series with MT4 [9] (setting [10]).

For the molecule `Cc1ccnc2c1NC(=O)c1cccnc1N2C1CC1` [NEVIRAPINE], the IC50 is 0.22 mg/L (≈ 0.826 µM) in the series with MT4 [8], 0.01 mg/L (≈ 0.0376 µM) in series [4] and above 10 mg/L in the series on MT4 [9] (setting [10]).

For the molecule `CC(C)(C)NC(=O)[C@@H]1C[C@@H]2CCCC[C@@H]2CN1C[C@@H](O)[C@H](Cc1ccccc1)NC(=O)[C@H](CC(N)=O)NC(=O)c1ccc2ccccc2n1` [SAQUINAVIR], the figures for the IC50 (in the series with MT4 [8]; in [4]; with MT4 [9] (setting [10])) were 0.0038 mg/L (≈ 0.00566 µM), 0.028 mg/L (≈ 0.0417 µM) and above 1 mg/L, respectively.
